Experimental data taken from ChEMBL document CHEMBL1201862, “PubChem BioAssay data set” (2004).
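Where inhibition never reached the appropriate level, the endpoint shown equals the highest concentration tested. Otherwise, values were interpolated linearly from a five-concentration, 48-hour dose response in 96-well plates. Abbreviation: GI50, concentration required for 50% inhibition of growth.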 Active and inactive are the calls of the source. No stated cut-off is given here; in the data, active = GI50 up to about 1.1 µM and inactive = higher.

Tests used:
Assay in all cases: NCI anticancer screen, dose series, 48 h
[1] = system: DLD-1
[2] = system: SF-539
[3] = system: HOP-18
[4] = system: SNB-75
[5] = system: UACC-257
[6] = system: OVCAR-3
[7] = system: LOX IMVI
[8] = system: NCI-H226
[9] = system: HOP-92
[10] = system: SNB-19
[11] = system: SF-268
[12] = system: NCI/ADR-RES
[13] = system: SK-MEL-28
[14] = system: CAKI-1
[15] = system: A498
[16] = system: DMS-273
[17] = system: HCT-15
[18] = system: IGROV-1
[19] = system: K562
[20] = system: NCI-H460
[21] = system: M19-MEL
[22] = system: Malme-3M
[23] = system: HT-29
[24] = system: SK-MEL-5
[25] = system: MCF7
[26] = system: RXF 393
[27] = system: SNB-78
[28] = system: UO-31
[29] = system: OVCAR-4
[30] = system: UACC-62
[31] = system: SK-OV-3
[32] = system: COLO 205
[33] = system: RPMI-8226
[34] = system: SN12C
[35] = system: A549
[36] = system: NCI-H522
[37] = system: KM12
[38] = system: EKVX
[39] = system: HOP-62
[40] = system: MOLT-4
[41] = system: SK-MEL-2
[42] = system: KM-20L2
[43] = system: NCI-H23
[44] = system: HCC 2998
[45] = system: OVCAR-8
[46] = system: SW-620
[47] = system: U-251
[48] = system: SF-295
[49] = system: HL-60
[50] = system: CCRF-CEM
[51] = system: HCT-116
[52] = system: OVCAR-5
[53] = system: DMS-114
[54] = system: ACHN
[55] = system: LXFL 529
[56] = system: 786-0
[57] = system: TK-10
[58] = system: M14

COC(=O)C1C(O)C(C)C(O)C(C)(O)/C=C\C=C(C)C(=O)Nc2c(C)c(OC(C)=O)c3c(c2O)C(=O)C(C)=C2OCOC(=C23)C(C)=CC(C)(O)C(O)C(C)C1OC(C)=O (stereo not drawn)
GI50 [1]: 24.7 µM (inactive)
GI50 [2]: 41.2 µM (inactive)
GI50 [3]: 93.1 µM (inactive)
GI50 [4]: 31 µM (inactive)
GI50 [5]: 26.1 µM (inactive)
GI50 [6]: 27.7 µM (inactive)
GI50 [7]: 20.4 µM (inactive)
GI50 [8]: 63.5 µM (inactive)
GI50 [9]: 2.52 µM (inactive)
GI50 [10]: 89.9 µM (inactive)
GI50 [11]: 46.6 µM (inactive)
GI50 [12]: > 100 µM (inactive)
GI50 [13]: 40.1 µM (inactive)
GI50 [14]: 47.5 µM (inactive)
GI50 [15]: 49.8 µM (inactive)
GI50 [16]: 44 µM (inactive)
GI50 [17]: 35.5 µM
GI50 [18]: 30.1 µM (inactive)
GI50 [19]: 37.4 µM (inactive)
GI50 [20]: 26.1 µM (inactive)
GI50 [21]: 17.3 µM (inactive)
GI50 [22]: 28.9 µM (inactive)
GI50 [23]: 45.4 µM (inactive)
GI50 [24]: 30.3 µM (inactive)
GI50 [25]: 18 µM (inactive)
GI50 [26]: 22.4 µM (inactive)
GI50 [27]: 44.6 µM (inactive)
GI50 [28]: > 100 µM (inactive)
GI50 [29]: 75 µM (inactive)
GI50 [30]: 21.1 µM (inactive)
GI50 [31]: > 95.1 µM (inactive)
GI50 [32]: 18.6 µM (inactive)
GI50 [33]: 33.3 µM (inactive)
GI50 [34]: 24 µM (inactive)
GI50 [35]: > 100 µM (inactive)
GI50 [36]: 32.4 µM (inactive)
GI50 [37]: 26.7 µM (inactive)
GI50 [38]: 34.1 µM (inactive)
GI50 [39]: > 86.3 µM (inactive)
GI50 [40]: 38 µM (inactive)
GI50 [41]: 19.6 µM (inactive)
GI50 [42]: 33.7 µM (inactive)
GI50 [43]: 24.4 µM (inactive)
GI50 [44]: 34.4 µM (inactive)
GI50 [45]: 49.3 µM (inactive)
GI50 [46]: 38.3 µM (inactive)
GI50 [47]: 57.4 µM (inactive)
GI50 [48]: 80.4 µM (inactive)
GI50 [49]: 28.4 µM (inactive)
GI50 [50]: 34.7 µM (inactive)
GI50 [51]: 21.4 µM (inactive)
GI50 [52]: > 100 µM (inactive)
GI50 [53]: 16.1 µM (inactive)

Cc1ccc(C(=O)/C=C/c2ccccc2O)c(C)c1
GI50 [1]: > 100 µM (inactive)
GI50 [2]: > 100 µM (inactive)
GI50 [54]: > 100 µM (inactive)
GI50 [4]: 1.24 µM (inactive)
GI50 [5]: > 100 µM (inactive)
GI50 [6]: > 100 µM (inactive)
GI50 [7]: > 100 µM (inactive)
GI50 [8]: > 100 µM (inactive)
GI50 [9]: > 100 µM (inactive)
GI50 [10]: > 100 µM (inactive)
GI50 [11]: 93.3 µM (inactive)
GI50 [13]: > 100 µM (inactive)
GI50 [14]: > 100 µM (inactive)
GI50 [15]: > 100 µM (inactive)
GI50 [55]: > 100 µM (inactive)
GI50 [16]: > 100 µM (inactive)
GI50 [17]: > 100 µM
GI50 [18]: > 100 µM (inactive)
GI50 [19]: > 100 µM (inactive)
GI50 [20]: > 100 µM (inactive)
GI50 [21]: 1.35 µM (inactive)
GI50 [22]: > 100 µM (inactive)
GI50 [56]: > 100 µM (inactive)
GI50 [23]: 0.8 µM (active)
GI50 [24]: > 100 µM (inactive)
GI50 [26]: > 100 µM (inactive)
GI50 [27]: > 100 µM (inactive)
GI50 [28]: > 100 µM (inactive)
GI50 [29]: > 100 µM (inactive)
GI50 [30]: > 100 µM (inactive)
GI50 [57]: > 100 µM (inactive)
GI50 [31]: > 100 µM (inactive)
GI50 [32]: > 100 µM (inactive)
GI50 [33]: 18.7 µM (inactive)
GI50 [34]: > 100 µM (inactive)
GI50 [35]: > 100 µM (inactive)
GI50 [36]: > 100 µM (inactive)
GI50 [37]: > 100 µM (inactive)
GI50 [38]: > 100 µM (inactive)
GI50 [39]: > 100 µM (inactive)
GI50 [40]: 94.8 µM (inactive)
GI50 [41]: > 100 µM (inactive)
GI50 [42]: > 100 µM (inactive)
GI50 [43]: > 100 µM (inactive)
GI50 [44]: > 100 µM (inactive)
GI50 [45]: > 100 µM (inactive)
GI50 [46]: > 100 µM (inactive)
GI50 [47]: > 100 µM (inactive)
GI50 [48]: > 100 µM (inactive)
GI50 [49]: > 100 µM (inactive)
GI50 [50]: 30.1 µM (inactive)
GI50 [51]: > 100 µM (inactive)
GI50 [52]: > 100 µM (inactive)
GI50 [53]: > 100 µM (inactive)
GI50 [58]: > 100 µM (inactive)
